Measurements published in patent US8207177B2, “Inhibitors of E1 activating enzymes” (Millennium Pharmaceuticals, Inc., priority 2006, dated 2012).

The compounds below were run against T1, recombinant human NAE enzyme (Homo sapiens, UniProt Q8TBC4) (assay: Nedd8-Activating Enzyme (NAE) HTRF Assay). Settings: threshold statement: less than or equal to 100 nM; 20 μM ATP, 90 minutes at 24° C.
T1 construct: His (N); made in house; host or cells: Sf9 insect cells (baculovirus, Bac-to-Bac), purified on Ni-NTA
T1 sequence (Q8TBC4 1-463): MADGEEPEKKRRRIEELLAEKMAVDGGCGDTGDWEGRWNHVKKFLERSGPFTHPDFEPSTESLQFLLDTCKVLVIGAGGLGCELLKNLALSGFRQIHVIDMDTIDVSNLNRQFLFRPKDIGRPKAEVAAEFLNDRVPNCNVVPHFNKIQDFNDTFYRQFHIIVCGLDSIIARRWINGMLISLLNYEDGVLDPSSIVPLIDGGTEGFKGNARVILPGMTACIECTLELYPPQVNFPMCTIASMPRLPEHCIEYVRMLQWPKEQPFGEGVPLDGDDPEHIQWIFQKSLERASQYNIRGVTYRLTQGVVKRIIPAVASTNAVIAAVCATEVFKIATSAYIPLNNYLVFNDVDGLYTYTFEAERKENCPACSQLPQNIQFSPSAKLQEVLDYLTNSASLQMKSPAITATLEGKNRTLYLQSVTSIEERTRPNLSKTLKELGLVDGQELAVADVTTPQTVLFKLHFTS
T1 sequence (Q13564 1-534 partner): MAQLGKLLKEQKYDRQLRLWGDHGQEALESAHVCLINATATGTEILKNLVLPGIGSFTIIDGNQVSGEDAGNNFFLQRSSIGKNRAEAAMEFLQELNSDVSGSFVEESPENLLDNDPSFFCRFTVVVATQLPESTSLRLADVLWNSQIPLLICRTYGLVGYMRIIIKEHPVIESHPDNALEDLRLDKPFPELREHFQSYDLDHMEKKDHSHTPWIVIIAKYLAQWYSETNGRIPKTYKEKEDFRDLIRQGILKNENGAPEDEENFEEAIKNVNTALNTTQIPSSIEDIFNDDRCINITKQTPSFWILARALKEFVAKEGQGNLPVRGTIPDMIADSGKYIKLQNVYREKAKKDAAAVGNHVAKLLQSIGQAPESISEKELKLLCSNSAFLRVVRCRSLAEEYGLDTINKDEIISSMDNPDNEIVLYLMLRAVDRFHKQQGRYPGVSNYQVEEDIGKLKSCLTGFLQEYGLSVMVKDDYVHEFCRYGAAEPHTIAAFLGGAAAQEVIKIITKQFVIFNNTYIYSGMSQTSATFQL
Assay type: biochemical
Protocol: Following manufacturer instructions, baculoviruses were generated with the Bac-to-Bac Expression System (Invitrogen) for the following proteins: untagged NAEα (APPBP1; NP_003896.1), N-terminally His-tagged NAEβ (UBE1C; NP_003959.3), untagged SAEα (SAE1; NP_005491.1), N-terminally His-tagged SAEβ (UBA2; NP_005490.1), N-terminally His-tagged murine UAE (UBE1X; NP_033483). NAEα/His-NAEβ and SAEα/His-SAEβ complexes were generated by co-infection of Sf9 cells, which were harvested after 48 hours. His-mUAE was generated by single infection of Sf9 cells and harvested after 72 hours. Expressed proteins were purified by affinity chromatography (Ni—NTA agarose, Qiagen) using standard buffers. Ubc12 (UBE2M; NP_003960.1), Ubc9 (UBE2I; NP_003336.1), Ubc2 (UBE2A; NP_003327.2) were subcloned into pGEX (Pharmacia) and expressed as N-terminally GST tagged fusion proteins in E. coli. Expressed proteins were purified by conventional affinity chromatography using standard buffers. Nedd8 (NP_006147), Sumo-1 (NP_003343) and Ubiquitin (with optimized codons) were subcloned into pFLAG-2 (Sigma) and expressed as N-terminally Flag tagged fusion proteins in E. coli. Expressed proteins were purified by conventional chromatography using standard buffers. Nedd8-Activating Enzyme (NAE) HTRF Assay. The NAE enzymatic reaction totaled 50 μL and contained 50 mM HEPES (pH 7.5), 0.05% BSA, 5 mM MgCl2, 20 μM ATP, 250 μM GSH, 0.01 μM Ubc12-GST, 0.075 μM Nedd8-Flag and 0.28 nM recombinant human NAE enzyme. The enzymatic reaction mixture, with and without compound inhibitor, was incubated at 24° C. for 90 minutes in a 384-well plate before termination with 25 μL of Stop/Detection buffer (0.1M HEPES pH 7.5, 0.05% Tween20, 20 mM EDTA, 410 mM KF, 0.53 nM Europium-Cryptate labeled monoclonal anti-FLAG M2 antibody (CisBio International) and 8.125 μg/mL PHYCOLINK goat anti-GST allophycocyanin (XL-APC) antibody (Prozyme)). After incubation for 3 hours at 24° C., quantification of the FRET was performed on the Analyst™ HT 96.384 (Molecular Devices).

IC50, ≤ 100 nM:
NS(=O)(=O)/C=C/[C@@H]1C[C@@H](n2ccc3c(N[C@H]4CCc5ccccc54)ncnc32)C[C@@H]1O [Compound I-73, (E)-2-((1S,2S,4R)-4-{4-[(1S)-2,3-dihydro-1H-inden-1-ylamino]-7H-pyrrolo[2,3-d]pyrimidin-7-yl}-2-hydroxycyclopentyl)ethylenesulfonamide]
NS(=O)(=O)OC[C@@H]1C[C@@H](n2ccc3c(NCc4ccc(Cl)cc4)ncnc32)C[C@@H]1O [Compound I-45, ((1S,2S,4R)-4-{4-[(4-chlorobenzyl)amino]-7H-pyrrolo[2,3-d]pyrimidin-7-yl}-2-hydroxycyclopentyl)methyl sulfamate]
CO[C@H]1CCc2ccccc2[C@H]1Nc1ncnc2c1ccn2[C@@H]1C[C@@H](COS(N)(=O)=O)[C@@H](O)C1 [Compound I-85, [(1S,2S,4R)-2-hydroxy-4-(4-{[(1R,2S)-2-methoxy-1,2,3,4-tetrahydronaphthalen-1-yl]amino}-7H-pyrrolo[2,3-d]pyrimidin-7-yl)cyclopentyl]methyl sulfamate]
Cc1ncnc2c1ccn2[C@@H]1C[C@@H](COS(N)(=O)=O)[C@@H](O)C1 [Compound I-46, [(1S,2S,4R)-2-hydroxy-4-(4-methyl-7H-pyrrolo[2,3-d]pyrimidin-7-yl)cyclopentyl]methyl sulfamate]
NS(=O)(=O)OC[C@@H]1C[C@@H](n2ccc3c(N[C@H]4CCc5c(Br)cccc54)ncnc32)C[C@@H]1O [Compound I-65, [(1S,2S,4R)-4-(4-{[(1S)-4-bromo-2,3-dihydro-1H-inden-1-yl]amino}-7H-pyrrolo[2,3-d]pyrimidin-7-yl)-2-hydroxycyclopentyl]methyl sulfamate]
NS(=O)(=O)OC[C@@H]1C[C@@H](n2ccc3c(OCc4ccc(Cl)cc4)ncnc32)C[C@@H]1O [Compound I-34, ((1S,2S,4R)-4-{4-[(4-chlorobenzyl)oxy]-7H-pyrrolo[2,3-d]pyrimidin-7-yl}-2-hydroxycyclopentyl)methyl sulfamate]
NS(=O)(=O)OC[C@@H]1C[C@@H](n2ccc3c(N[C@@H]4CCc5c(Cl)cccc54)ncnc32)C[C@@H]1O [Compound I-63, [(1S,2S,4R)-4-(4-{[(1R)-4-chloro-2,3-dihydro-1H-inden-1-yl]amino}-7H-pyrrolo[2,3-d]pyrimidin-7-yl)-2-hydroxycyclopentyl]methyl sulfamate]
Cc1cc(CNc2ncnc3c2ccn3[C@@H]2C[C@@H](COS(N)(=O)=O)[C@@H](O)C2)no1 [Compound I-41, [(1S,2S,4R)-2-hydroxy-4-(4-{[(5-methylisoxazol-3-yl)methyl]amino}-7H-pyrrolo-[2,3-d]pyrimidin-7-yl)cyclopentyl]methyl sulfamate]
NS(=O)(=O)OC[C@@H]1C[C@@H](n2ccc3c(N[C@@H]4c5ccccc5C[C@@H]4O)ncnc32)C[C@@H]1O [Compound I-71, [(1S,2S,4R)-2-hydroxy-4-(4-{[(1R,2S)-2-hydroxy-2,3-dihydro-1H-inden-1-yl]amino}-7H-pyrrolo[2,3-d]pyrimidin-7-yl)cyclopentyl]methyl sulfamate]
NS(=O)(=O)OC[C@@H]1C[C@@H](n2ccc3c(N[C@H]4CCc5c(F)ccc(F)c54)ncnc32)C[C@@H]1O [Compound I-62, [(1S,2S,4R)-4-(4-{[(1S)-4,7-difluoro-2,3-dihydro-1H-inden-1-yl]amino}-7H-pyrrolo[2,3-d]pyrimidin-7-yl)-2-hydroxycyclopentyl]methyl sulfamate]
CC[C@H]1Cc2ccccc2[C@H]1Nc1ncnc2c1ccn2[C@@H]1C[C@@H](COS(N)(=O)=O)[C@@H](O)C1 [Compound I-84, [(1S,2S,4R)-4-(4-{[(1S,2S)-2-ethyl-2,3-dihydro-1H-inden-1-yl]amino}-7H-pyrrolo[2,3-d]pyrimidin-7-yl)-2-hydroxycyclopentyl]methyl sulfamate]
CO[C@@H]1Cc2ccccc2[C@H]1Nc1ncnc2c1ccn2[C@@H]1C[C@@H](COS(N)(=O)=O)[C@@H](O)C1 [Compound I-72, [(1S,2S,4R)-2-hydroxy-4-(4-{[(1R,2R)-2-methoxy-2,3-dihydro-1H-inden-1-yl]amino}-7H-pyrrolo[2,3-d]pyrimidin-7-yl)cyclopentyl]methyl sulfamate]
CO[C@H]1Cc2ccccc2[C@H]1Nc1ncnc2c1ccn2[C@@H]1C[C@@H](COS(N)(=O)=O)[C@@H](O)C1 [Compound I-52, [(1S,2S,4R)-2-hydroxy-4-(4-{[(1R,2S)-2-methoxy-2,3-dihydro-1H-inden-1-yl]-amino}-7H-pyrrolo[2,3-d]pyrimidin-7-yl)cyclopentyl]methyl sulfamate]
NS(=O)(=O)OC[C@@H]1C[C@@H](n2ccc3c(NCc4ccc(Cl)cc4Cl)ncnc32)C[C@@H]1O [Compound I-19, ((1S,2S,4R)-4-{4-[(2,4-dichlorobenzyl)amino]-7H-pyrrolo[2,3-d]pyrimidin-7-yl}-2-hydroxycyclopentyl)methyl sulfamate]
CC1(C)C[C@H](Nc2ncnc3c2ccn3[C@@H]2C[C@@H](COS(N)(=O)=O)[C@@H](O)C2)c2ccc(Cl)cc21 [Compound I-67, [(1S,2S,4R)-4-(4-{[(1S)-5-chloro-3,3-dimethyl-2,3-dihydro-1H-inden-1-yl]amino)-7H-pyrrolo[2,3-d]pyrimidin-7-yl)-2-hydroxycyclopentyl]methyl sulfamate]
CC(C)O[C@H]1Cc2ccccc2[C@H]1Nc1ncnc2c1ccn2[C@@H]1C[C@@H](COS(N)(=O)=O)[C@@H](O)C1 [Compound I-54, [(1S,2S,4R)-2-hydroxy-4-(4-{[(1R,2S)-2-isopropoxy-2,3-dihydro-1H-inden-1-yl]-amino}-7H-pyrrolo[2,3-d]pyrimidin-7-yl)cyclopentyl]methyl sulfamate]
CC1(C)C[C@@H](Nc2ncnc3c2ccn3[C@@H]2C[C@@H](COS(N)(=O)=O)[C@@H](O)C2)c2ccccc21 (single isomer, unassigned) [Compound I-21]
C[C@H]1Cc2ccccc2[C@H]1Nc1ncnc2c1ccn2[C@@H]1C[C@@H](COS(N)(=O)=O)[C@@H](O)C1 [Compound I-82, [(1S,2S,4R)-2-hydroxy-4-(4-{[(1S,2S)-2-methyl-2,3-dihydro-1H-inden-1-yl]amino}-7H-pyrrolo[2,3-d]pyrimidin-7-yl)cyclopentyl]methyl sulfamate]
NS(=O)(=O)OC1CC(n2ccc3c(N[C@H]4CCc5ccccc54)ncnc32)CC1O (stereo in doubt) [Compound I-78, (1R,2S,4S)-4-{4-[(1S)-2,3-dihydro-1H-inden-1-ylamino]-7H-pyrrolo[2,3-d]pyrimidin-7-yl}-2-hydroxycyclopentyl sulfamate]
